Assay results as given in ChEMBL document CHEMBL5625267, “Glycosidase-activated H2S donorsto enhance chemotherapy efficacy” (Bioorg Med Chem Lett, 2024).
The source made the active and inactive calls. The rule behind the calls is not given here.

Legend:
HepG2 [1] = experiment: Antiproliferative activity against human HepG2 cells assessed as cell viability at 80 uM incubated for 24 hrs by MTT assay relative to control; assay type: functional; conditions: read-out: Activity
[2] = Release of H2S in PBS at 50 uM at pH 7.4; assay type: physicochemical; conditions: buffer, pH 7.4, 50 µM
HeLa [3] = experiment: Induction of apoptosis in human HeLa cells at 80 uM incubated for 24 hrs by annexin V-FITC/propidium iodide staining based flow cytometry analysis relative to control; assay type: functional
[4] = Antiproliferative activity against mouse 3T3 cells assessed as cell viability at 50 uM incubated for 24 hrs by MTT assay relative to control; assay type: toxicity, cell-based; conditions: NIH3T3 cells, read-out: Activity
HepG2 [5] = experiment: Induction of apoptosis in human HepG2 cells at 80 uM incubated for 24 hrs by annexin V-FITC/propidium iodide staining based flow cytometry analysis relative to control; assay type: functional
HepG2 [6] = experiment: Antiproliferative activity against human HepG2 cells assessed as cell viability at 50 uM incubated for 24 hrs by MTT assay relative to control; assay type: functional; conditions: read-out: Activity
HeLa [7] = experiment: Antiproliferative activity against human HeLa cells assessed as cell viability at 50 uM incubated for 24 hrs by MTT assay relative to control; assay type: functional; conditions: read-out: Activity
[8] = Antiproliferative activity against mouse 3T3 cells assessed as cell viability at 80 uM incubated for 24 hrs by MTT assay relative to control; assay type: toxicity, cell-based; conditions: NIH3T3 cells, read-out: Activity
HeLa [9] = experiment: Antiproliferative activity against human HeLa cells assessed as cell viability at 80 uM incubated for 24 hrs by MTT assay relative to control; assay type: functional; conditions: read-out: Activity
HeLa [10] = experiment: Induction of apoptosis in human HeLa cells assessed as necrotic cells at 80 uM incubated for 24 hrs by annexin V-FITC/propidium iodide staining based flow cytometry analysis (reference value: 0.71 %); assay type: functional
HepG2 [11] = experiment: Cytotoxicity against human HepG2 cells assessed as cell viability at 80 uM incubated for 24 hrs in presence of doxorubicin by MTT assay relative to control; assay type: functional; conditions: read-out: Activity
HepG2 [12] = experiment: Induction of apoptosis in human HepG2 cells assessed as early apoptotic cells at 80 uM incubated for 24 hrs by annexin V-FITC/propidium iodide staining based flow cytometry analysis (reference value: 1.03 %); assay type: functional
HepG2 [13] = experiment: Induction of apoptosis in human HepG2 cells assessed as late apoptotic cells at 80 uM incubated for 24 hrs by annexin V-FITC/propidium iodide staining based flow cytometry analysis (reference value: 10.1 %); assay type: functional
HeLa [14] = experiment: Induction of apoptosis in human HeLa cells assessed as late apoptotic cells at 80 uM incubated for 24 hrs by annexin V-FITC/propidium iodide staining based flow cytometry analysis (reference value: 3.95 %); assay type: functional
HeLa [15] = experiment: Induction of apoptosis in human HeLa cells assessed as early apoptotic cells at 80 uM incubated for 24 hrs by annexin V-FITC/propidium iodide staining based flow cytometry analysis (reference value: 3.59 %); assay type: functional
HepG2 [16] = experiment: Cytotoxicity against human HepG2 cells assessed as cell viability at 100 uM incubated for 24 hrs by MTT assay relative to control; assay type: functional; conditions: read-out: Activity
HepG2 [17] = experiment: Induction of apoptosis in human HepG2 cells assessed as viable cells at 80 uM incubated for 24 hrs by annexin V-FITC/propidium iodide staining based flow cytometry analysis (reference value: 87.1 %); assay type: functional; conditions: read-out: Activity
HepG2 [18] = experiment: Cytotoxicity against human HepG2 cells assessed as cell viability at 80 uM incubated for 24 hrs by MTT assay relative to control; assay type: functional; conditions: read-out: Activity
HeLa [19] = experiment: Induction of apoptosis in human HeLa cells assessed as viable cells at 80 uM incubated for 24 hrs by annexin V-FITC/propidium iodide staining based flow cytometry analysis (reference value: 91.7 %); assay type: functional; conditions: read-out: Activity
HepG2 [20] = experiment: Induction of apoptosis in human HepG2 cells assessed as necrotic cells at 80 uM incubated for 24 hrs by annexin V-FITC/propidium iodide staining based flow cytometry analysis (reference value: 1.63 %); assay type: functional
HepG2 [21] = experiment: Release of H2S in human HepG2 cells assessed as fold increase in fluorescence intensity at 50 uM incubated for 7 hrs in presence of fluorescent probe WPS-1 measured after 30 mins by confocal imaging analysis; assay type: ADME, cell-based; conditions: hepg2, 7.5 h
HepG2 [22] = experiment: Cytotoxicity against human HepG2 cells assessed as cell viability at 100 uM incubated for 24 hrs in presence of doxorubicin by MTT assay relative to control; assay type: functional; conditions: read-out: Activity
HepG2 [23] = experiment: Cytotoxicity against human HepG2 cells assessed as cell viability at 2 ug/ml incubated for 24 hrs by MTT assay relative to control; assay type: functional; conditions: read-out: Activity

| SMILES | viability at 80 µM (HepG2 [1]) [%] | Activity [2] [%] | Activity (HeLa [3]) | viability at 24 h, 50 µM [4] [%] | Activity (HepG2 [5]) | viability at 50 µM (HepG2 [6]) [%] | viability at 50 µM (HeLa [7]) [%] | viability at 24 h, 80 µM [8] [%] | viability at 80 µM (HeLa [9]) [%] | also measured |
| --- | --- | --- | --- | --- | --- | --- | --- | --- | --- | --- |
| OC[C@H]1O[C@@H](Oc2ccc(COC(=S)Nc3ccc(C(F)(F)F)cc3)cc2F)[C@H](O)[C@@H](O)[C@H]1O | 86 | 36 | inactive | 97.3 | inactive | 88.9 | 94.6 | 87.9 | 96 |  |
| OC[C@H]1O[C@H](Oc2ccc(COC(=S)Nc3ccc(C(F)(F)F)cc3)cc2Br)[C@@H](O)[C@@H](O)[C@@H]1O | 37.6 | 36 | 45.2% | 83.6 | 51.8% | 53.2 | 102 | 62.3 | 70.8 | Activity (HeLa [10]): 4.98%; viability at 80 µM (HepG2 [11]): 64%; Activity (HepG2 [12]): 10.8%; Activity (HepG2 [13]): 37.4%; Activity (HeLa [14]): 23.3%; Activity (HeLa [15]): 21.1%; viability at 100 µM (HepG2 [16]): 67%; viability at 80 µM (HepG2 [17]): 50.7%; viability at 80 µM (HepG2 [18]): 73%; viability at 80 µM (HeLa [19]): 50.6%; Activity (HepG2 [20]): 1.13%; fold change (FC) (HepG2 [21]): 7; viability at 100 µM (HepG2 [22]): 46% |
| OC[C@H]1O[C@@H](Oc2ccc(COC(=S)Nc3ccc(C(F)(F)F)cc3)cc2F)[C@H](O)[C@@H](O)[C@@H]1O | 86 | 36 | inactive | 88.9 | inactive | 88.6 | 96 | 90.8 | 100 |  |
| OC[C@H]1O[C@H](Oc2ccc(COC(=S)Nc3ccc(C(F)(F)F)cc3)cc2)[C@@H](O)[C@@H](O)[C@@H]1O | 90.2 | 36 | inactive | 94.5 | inactive | 81.7 | 97.4 | 95.3 | 95 |  |
| OC[C@H]1O[C@@H](Oc2ccc(COC(=S)Nc3ccc(C(F)(F)F)cc3)cc2Br)[C@H](O)[C@@H](O)[C@@H]1O | 61.8 | 36 | inactive | 93.5 | inactive | 87.3 | 95.3 | 92.7 | 92.1 |  |
| OC[C@H]1O[C@@H](Oc2ccc(COC(=S)Nc3ccc(C(F)(F)F)cc3)cc2Br)[C@H](O)[C@@H](O)[C@H]1O | 86.8 | 36 |  | 86.8 | 20.9% | 82.2 | 97.5 | 89.2 | 88.2 |  |
| OC[C@H]1O[C@@H](Oc2ccc(COC(=S)Nc3ccc(C(F)(F)F)cc3)cc2)[C@H](O)[C@@H](O)[C@@H]1O | 91.2 | 36 | inactive | 88.1 | inactive | 87.9 | 86.9 | 91.7 | 92 |  |
| O=C(Nc1ccc(C(F)(F)F)cc1)OCc1ccc(O[C@H]2O[C@H](CO)[C@@H](O)[C@H](O)[C@@H]2O)c(Br)c1 | 51.6 |  |  |  |  |  |  |  |  |  |
| OC[C@H]1O[C@@H](Oc2ccc(COC(=S)Nc3ccc(C(F)(F)F)cc3)cc2)[C@H](O)[C@@H](O)[C@H]1O | 68.9 | 36 | inactive | 89.8 | inactive | 78.1 | 92 | 86.2 | 82.1 |  |
| OC[C@H]1O[C@H](Oc2ccc(COC(=S)Nc3ccc(C(F)(F)F)cc3)cc2F)[C@@H](O)[C@@H](O)[C@@H]1O | 49 | 36 | 40.6% | 86.3 | 24.4% | 45.7 | 78.7 | 83.9 | 72.6 | Activity (HeLa [10]): 8.15%; Activity (HepG2 [12]): 1.03%; Activity (HepG2 [13]): 18.3%; Activity (HeLa [14]): 23.9%; Activity (HeLa [15]): 8.14%; viability at 80 µM (HepG2 [17]): 76.3%; viability at 80 µM (HeLa [19]): 56.8%; Activity (HepG2 [20]): 3.44% |
| Cc1ccc(NC(=S)OCc2ccc(O[C@@H]3O[C@H](CO)[C@H](O)[C@H](O)[C@H]3O)cc2)cc1 | 96.9 | 36 | inactive | 110 | inactive | 95.8 | 97.1 | 103 | 96.3 |  |
| COc1cccc2c1C(=O)c1c(O)c3c(c(O)c1C2=O)C[C@@](O)(C(=O)CO)C[C@@H]3O[C@H]1C[C@H](N)[C@H](O)[C@H](C)O1 [DOXORUBICIN] |  |  |  |  |  |  |  |  |  | viability at 2 µg/mL (HepG2 [23]): 100% |
| Cc1ccc(NC(=S)OCc2ccc(O[C@@H]3O[C@H](CO)[C@@H](O)[C@H](O)[C@H]3O)cc2)cc1 | 85.3 | 36 | inactive | 102 | inactive | 91 | 86.9 | 95 | 90.8 |  |
